Data: patent US11542259B2, “Compounds for the treatment of kinase-dependent disorders” (Exelixis, Inc., priority 2018, dated 2023)

Legend:
[1] = target: Human Mer (residues R557-E882 with H628Q and R794A) (Homo sapiens (Human), UniProt Q12866); test: Human Mer kinase assay (33P radiometric, KinaseProfiler); assay type: biochemical; conditions: 10 μM ATP
Protocol: (§1) Kinase activity and compound inhibition were investigated using the ^33P-Phosphoryl transfer radiometric kinase assay, performed using the KinaseProfiler™ service of Eurofins Pharma Discovery Services UK Limited. Dose-response experiments were performed using nine compound concentrations in a 96-well microtiter plate. For each assay, all compounds were prepared to a 50× final assay concentration (50 μM) in 100% DMSO, then diluted in a half-log series, with the final top concentration at 1 μM. This working stock of the compound was added to the assay well as the first component in the reaction, followed by the remaining components as detailed in the following assay protocols below. The positive control wells (100% kinase activity) contain all components of the reaction including 2% DMSO (control for solvent effects), except the compound of interest. Blank wells contain all components of the reaction, with the reference inhibitor, staurosporine. This reference compound was used to abolish kinase activity and generated the 0% kinase activity base-line. IC50 values were calculated by nonlinear regression analysis using the sigmoidal dose-response (variable slope) curve fit on XLFit version 5.3 (ID Business Solutions).
Human Mer (residues R557-E882 with H628Q and R794A, 0.7 nM) was incubated with 8 mM MOPS pH 7.0, 0.2 mM EDTA, 30 mM NaCl, 250 μM GGMEDIYFEFMGGKKK (SEO ID NO. 44). 10 mM magnesium acetate, and 10 μM [γ-^33P-ATP]. The reaction was initiated by the addition of the Mg/ATP mix. After incubation for 40 minutes at room temperature, the reaction was stopped by the addition of phosphoric acid to a concentration of 0.5%. A reaction aliquot of 10 μL was then spotted onto a P30 filtermat and washed four times for 4 minutes in 0.425% phosphoric acid and once in methanol prior to drying and scintillation counting. Incorporated ^33P was measured using the Wallac Microbeta scintillation counter (Perkin Elmer).

[2] = target: Human Axl (residues H473-A894 with Q764R) (Homo sapiens (Human), UniProt P30530, Q764R); test: Human AXL kinase assay (33P radiometric, KinaseProfiler); assay type: biochemical; conditions: 10 μM ATP
Chain of Human Axl (residues H473-A894 with Q764R) (P30530 473-894 Q764R): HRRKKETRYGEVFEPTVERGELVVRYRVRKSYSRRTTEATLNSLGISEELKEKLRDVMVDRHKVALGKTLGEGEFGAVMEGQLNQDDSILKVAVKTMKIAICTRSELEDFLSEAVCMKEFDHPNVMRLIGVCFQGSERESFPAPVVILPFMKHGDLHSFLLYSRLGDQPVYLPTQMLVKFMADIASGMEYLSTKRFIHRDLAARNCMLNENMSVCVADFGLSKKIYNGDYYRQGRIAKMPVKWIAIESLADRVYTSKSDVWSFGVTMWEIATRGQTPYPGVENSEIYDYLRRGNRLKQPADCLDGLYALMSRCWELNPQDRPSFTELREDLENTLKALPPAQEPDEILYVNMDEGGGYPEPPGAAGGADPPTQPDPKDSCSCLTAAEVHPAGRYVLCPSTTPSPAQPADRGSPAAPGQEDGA
Protocol: as §1
Human Axl (residues H473-A894 with Q764R, 161 nM) was incubated with 8 mM MOPS pH 7.0, 0.2 mM EDTA, 250 μM KKSRGDYMTMQIG (SEO ID NO. 43) 10 mM magnesium acetate and 10 μM [γ-33P-ATP]. The reaction was initiated by the addition of the Mg/ATP mix. After incubation for 40 minutes at room temperature, the reaction was stopped by the addition of phosphoric acid to a concentration of 0.5%. A reaction aliquot of 10 μL was then spotted onto a P30 filtermat and washed four times for 4 minutes in 0.425% phosphoric acid and once in methanol prior to drying and scintillation counting. Incorporated ^33P was measured using the Wallac Microbeta scintillation counter (Perkin Elmer).

[3] = target: Human Met (residues R974-S1390 with A1209G and V1290L) (Homo sapiens, UniProt P08581); test: Human Met kinase assay (33P radiometric, KinaseProfiler); assay type: biochemical; conditions: 10 μM ATP, read-out: c-Met IC50
Protocol: as §1
Human Met (residues R974-S1390 with A1209G and V1290L, 3.4 nM) was incubated with 8 mM MOPS pH 7.0, 0.2 mM EDTA, 250 μM KKKGQEEEYVFIE (SEO ID NO. 45), 1 mM sodium orthovanadate, 5 mM […], 10 mM magnesium acetate, and 10 μM [γ-33P-ATP]. The reaction was initiated by the addition of the Mg/ATP mix. After incubation for 40 minutes at room temperature, the reaction was stopped by the addition of phosphoric acid to a concentration of 0.5%. A reaction aliquot of […] was then spotted onto a P30 filtermat and washed four times for 4 minutes in 0.425% phosphoric acid and once in methanol prior to drying and scintillation counting. Incorporated 33P was measured using the Wallac Microbeta scintillation counter (Perkin Elmer).

AXL = AXL (Homo sapiens (Human), UniProt P30530); test: AXL autophosphorylation ELISA in A-172 cells; assay type: cell-based; conditions: cellular, Gas6 stimulated
Chain of AXL (P30530 26-894): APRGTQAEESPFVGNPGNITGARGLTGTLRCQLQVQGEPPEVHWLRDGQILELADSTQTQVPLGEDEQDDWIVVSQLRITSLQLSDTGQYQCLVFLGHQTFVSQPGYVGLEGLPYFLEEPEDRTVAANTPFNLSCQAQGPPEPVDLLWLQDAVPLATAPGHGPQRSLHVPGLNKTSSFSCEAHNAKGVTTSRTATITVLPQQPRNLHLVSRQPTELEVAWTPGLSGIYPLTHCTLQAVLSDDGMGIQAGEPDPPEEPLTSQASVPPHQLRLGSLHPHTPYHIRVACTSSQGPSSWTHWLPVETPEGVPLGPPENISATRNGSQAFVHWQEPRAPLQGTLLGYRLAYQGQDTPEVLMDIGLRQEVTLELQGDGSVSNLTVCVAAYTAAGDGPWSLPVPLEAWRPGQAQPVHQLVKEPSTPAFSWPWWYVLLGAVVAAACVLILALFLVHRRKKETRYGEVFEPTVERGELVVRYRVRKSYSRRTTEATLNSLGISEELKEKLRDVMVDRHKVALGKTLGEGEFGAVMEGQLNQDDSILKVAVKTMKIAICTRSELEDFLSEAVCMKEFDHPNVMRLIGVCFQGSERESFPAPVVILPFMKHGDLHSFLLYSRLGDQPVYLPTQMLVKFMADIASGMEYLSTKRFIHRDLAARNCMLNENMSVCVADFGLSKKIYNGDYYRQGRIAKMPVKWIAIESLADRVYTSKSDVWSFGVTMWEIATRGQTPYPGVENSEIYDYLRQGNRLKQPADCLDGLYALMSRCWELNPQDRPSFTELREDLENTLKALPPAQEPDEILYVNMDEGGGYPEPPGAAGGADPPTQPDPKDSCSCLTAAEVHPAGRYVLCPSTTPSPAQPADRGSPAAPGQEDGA
Protocol: A-172 glioblastoma cells (ATCC #CRL-1620) were seeded at 2.5×10^5 cells/well onto 24-well plates (Greiner #662165), in DMEM (Thermo Fisher #11995-040) containing 10% FBS (Thermo Fisher #26140-079), 1% MEM NEAA (Thermo Fisher #11140-050), 1% GlutaMax (Thermo Fisher #35050-061) and 1% Penicillin Streptomycin (Thermo Fisher #15140-122). A-172 cells were incubated at 37° C., 5% CO2 for 24 h and then starved for 24 h in serum-free medium. Test compounds were serially diluted to produce an 8-point dose curve in fresh serum-free medium to a final concentration of 0.3% DMSO (vehicle) and added to the cells and incubated for 1 h. Cells were then stimulated with 1 μg/mL recombinant human Gas6 (R&D Systems #885-GSB-500) for 15 min, washed with cold PBS and immediately lysed with 150 μL of cold 1× lysis buffer [20 mM Tris, 137 mM sodium chloride, 2 mM EDTA, 10% glycerol, 1% NP-40 alternative, 1 mM activated sodium orthovanadate, 1 mM PefaBloc SC (Sigma-Aldrich #11429868001), protease/phosphatase inhibitor tablet (Thermo Fisher #A32959)]. Lysates were collected and 100 μL/well added into the human phospho-AXL DuoSet IC ELISA (R&D Systems #DYC2228-2). Assay was performed according to manufacturer's instructions and sample phospho-AXL concentrations were extrapolated using human phospho-AXL control (R&D Systems #841645) as a standard. Positive control wells (100% activity) contained Gash-stimulated, DMSO-treated cell lysates. Negative control wells (0% activity) contained Gash-stimulated, reference inhibitor-treated cell lysates. IC50 values were calculated by nonlinear regression analysis using a 4-parameter logistic curve fit in ActivityBase XE (IDBS).

Met = Met (Homo sapiens (Human), UniProt P08581); test: Met autophosphorylation ELISA in PC-3 cells; assay type: cell-based; conditions: cellular, HGF stimulated, read-out: c-Met IC50
Chain of Met (P08581 25-1390): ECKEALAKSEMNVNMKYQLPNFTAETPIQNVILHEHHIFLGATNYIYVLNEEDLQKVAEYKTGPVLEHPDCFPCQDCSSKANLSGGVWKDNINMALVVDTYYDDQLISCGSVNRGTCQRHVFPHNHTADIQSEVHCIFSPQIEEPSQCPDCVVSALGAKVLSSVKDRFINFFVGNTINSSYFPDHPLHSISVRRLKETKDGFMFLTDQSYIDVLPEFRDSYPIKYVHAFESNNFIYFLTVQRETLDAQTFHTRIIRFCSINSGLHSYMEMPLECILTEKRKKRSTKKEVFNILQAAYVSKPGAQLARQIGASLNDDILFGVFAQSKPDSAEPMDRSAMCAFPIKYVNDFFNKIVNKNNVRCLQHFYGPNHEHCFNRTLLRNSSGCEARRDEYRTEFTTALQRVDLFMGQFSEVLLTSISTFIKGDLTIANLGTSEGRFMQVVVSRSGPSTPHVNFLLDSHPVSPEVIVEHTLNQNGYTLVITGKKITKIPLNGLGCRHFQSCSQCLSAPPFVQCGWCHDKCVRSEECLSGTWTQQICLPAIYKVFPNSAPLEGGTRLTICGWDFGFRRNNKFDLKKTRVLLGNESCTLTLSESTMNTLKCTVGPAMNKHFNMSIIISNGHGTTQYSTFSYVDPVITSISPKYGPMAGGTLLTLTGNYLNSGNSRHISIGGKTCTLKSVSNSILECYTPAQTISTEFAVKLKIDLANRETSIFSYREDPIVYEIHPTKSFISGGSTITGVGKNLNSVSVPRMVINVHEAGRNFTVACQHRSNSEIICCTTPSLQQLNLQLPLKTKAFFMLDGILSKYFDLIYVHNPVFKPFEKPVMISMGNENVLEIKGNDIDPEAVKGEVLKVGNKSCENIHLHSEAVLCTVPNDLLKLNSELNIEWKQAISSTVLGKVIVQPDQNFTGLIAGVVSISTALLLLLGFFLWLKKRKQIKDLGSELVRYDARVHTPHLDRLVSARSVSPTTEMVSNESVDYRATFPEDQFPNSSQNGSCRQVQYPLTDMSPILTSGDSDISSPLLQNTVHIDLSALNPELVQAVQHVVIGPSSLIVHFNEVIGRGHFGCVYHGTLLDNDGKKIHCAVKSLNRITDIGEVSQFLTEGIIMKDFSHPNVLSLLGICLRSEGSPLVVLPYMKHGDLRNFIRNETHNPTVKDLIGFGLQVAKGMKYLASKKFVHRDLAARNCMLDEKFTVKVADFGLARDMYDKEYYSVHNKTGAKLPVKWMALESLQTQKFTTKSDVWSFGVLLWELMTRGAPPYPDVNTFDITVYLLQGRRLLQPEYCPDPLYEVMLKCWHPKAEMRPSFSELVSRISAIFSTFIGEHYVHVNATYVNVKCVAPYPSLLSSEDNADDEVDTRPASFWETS
Protocol: PC-3 prostate cancer cells (ATCC #CRL-1435) were seeded at 4×10^4 cells/well onto 24-well plates (Greiner #662165), in DMEM (Thermo Fisher #11995-040) containing 10% FBS (Thermo Fisher #26140-079), 1% MEM NEAA (Thermo Fisher #11140-050), 1% GlutaMax (Thermo Fisher #35050-061), and 1% Penicillin Streptomycin (Thermo Fisher #15140-122). PC-3 cells were incubated at 37° C., 5% CO2 for 24 h and then starved for 3 h in serum-free medium. Test compounds were serially diluted to produce an 8-point dose curve in fresh serum-free medium to a final concentration of 0.3% DMSO (vehicle) and added to the cells and incubated for 1 h. Cells were then stimulated with 100 ng/mL recombinant human HGF (R&D Systems #294-HG-250) for 10 min, washed with cold PBS and immediately lysed with 130 μL of cold 1× lysis buffer [20 mM Tris, 137 mM sodium chloride, 2 mM EDTA, 10% glycerol, 1% NP-40 alternative, 1 mM activated sodium orthovanadate, 1 mM PefaBloc SC (Sigma-Aldrich #11429868001), protease/phosphatase inhibitor tablet (Thermo Fisher #A32959)]. Lysates were clarified by centrifugation and 100 μL/well added into the PathScan phospho-Met (panTyr) Sandwich ELISA (Cell Signaling Technology #7333). Assay was performed according to manufacturer's instructions. Positive control wells (100% activity) contained HGF-stimulated, DMSO-treated cell lysates. Negative control wells (0% activity) contained HGF-stimulated, reference inhibitor-treated cell lysates. IC50 values were calculated by nonlinear regression analysis using a 4-parameter logistic curve fit in ActivityBase XE (IDBS).

KDR = KDR (Homo sapiens (Human), UniProt P35968); test: KDR autophosphorylation ELISA in HUVEC cells; assay type: cell-based; conditions: cellular, VEGF165 stimulated
Chain of KDR (P35968 20-1356): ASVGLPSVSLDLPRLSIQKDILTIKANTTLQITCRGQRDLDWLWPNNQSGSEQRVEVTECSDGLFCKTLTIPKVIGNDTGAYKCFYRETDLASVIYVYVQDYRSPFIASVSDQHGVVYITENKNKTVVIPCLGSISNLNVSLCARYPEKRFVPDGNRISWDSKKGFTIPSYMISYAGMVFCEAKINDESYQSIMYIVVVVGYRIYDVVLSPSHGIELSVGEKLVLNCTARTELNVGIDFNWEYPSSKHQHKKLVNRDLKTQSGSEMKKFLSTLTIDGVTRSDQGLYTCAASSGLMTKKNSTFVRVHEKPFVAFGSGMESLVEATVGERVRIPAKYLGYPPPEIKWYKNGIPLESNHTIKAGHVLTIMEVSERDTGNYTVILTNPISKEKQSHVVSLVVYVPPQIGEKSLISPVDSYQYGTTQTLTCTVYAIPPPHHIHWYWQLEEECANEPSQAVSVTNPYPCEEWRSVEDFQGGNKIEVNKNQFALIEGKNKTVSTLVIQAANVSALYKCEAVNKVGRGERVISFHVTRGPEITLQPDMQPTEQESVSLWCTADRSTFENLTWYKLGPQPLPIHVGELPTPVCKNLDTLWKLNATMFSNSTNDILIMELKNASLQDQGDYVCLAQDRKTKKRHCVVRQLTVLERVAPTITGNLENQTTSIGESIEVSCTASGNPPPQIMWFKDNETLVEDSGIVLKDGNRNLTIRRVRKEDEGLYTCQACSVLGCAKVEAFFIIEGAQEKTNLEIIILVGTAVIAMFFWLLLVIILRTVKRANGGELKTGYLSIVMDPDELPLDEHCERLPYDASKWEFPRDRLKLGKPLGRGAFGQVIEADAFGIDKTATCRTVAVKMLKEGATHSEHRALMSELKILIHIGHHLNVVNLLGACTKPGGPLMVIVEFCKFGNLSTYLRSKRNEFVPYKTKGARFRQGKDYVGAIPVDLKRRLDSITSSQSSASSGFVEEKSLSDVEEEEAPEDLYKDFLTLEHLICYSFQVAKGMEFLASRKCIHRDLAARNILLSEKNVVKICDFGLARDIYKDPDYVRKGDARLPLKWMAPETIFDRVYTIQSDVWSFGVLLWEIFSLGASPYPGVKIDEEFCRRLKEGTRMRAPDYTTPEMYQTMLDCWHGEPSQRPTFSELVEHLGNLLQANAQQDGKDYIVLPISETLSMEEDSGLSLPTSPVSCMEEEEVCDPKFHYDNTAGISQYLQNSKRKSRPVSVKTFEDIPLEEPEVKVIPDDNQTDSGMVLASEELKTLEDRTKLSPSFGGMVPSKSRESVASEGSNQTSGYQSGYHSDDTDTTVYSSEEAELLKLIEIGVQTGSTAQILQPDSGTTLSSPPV
Protocol: Human umbilical vein endothelial cells or HUVEC (Lonza #C2519A) were seeded at 2×10^4 cells/well onto 96-well plates (Corning #3904), in EGM-2 growth medium (Lonza #CC-3162) containing 1% Penicillin Streptomycin (Thermo Fisher #15140-122). HUVEC cells were incubated at 37° C., 5% CO2 for 24 h and then starved for 24 h in serum-free EBM-2 basal medium (Lonza #CC-3156) containing 1% Penicillin Streptomycin. Test compounds were serially diluted to produce an 8-point dose curve in fresh serum-free medium to a final concentration of 0.3% DMSO (vehicle) and added to the cells and incubated for 1 h. Cells were then stimulated with 100 ng/mL recombinant human VEGF165 (R&D Systems #293-VE-500) for 5 min, washed with cold PBS, and immediately lysed with 130 μL of cold 1× lysis buffer [20 mM Tris, 137 mM sodium chloride, 2 mM EDTA, 10% glycerol, 1% NP-40 alternative, 1 mM activated sodium orthovanadate, 1 mM PefaBloc SC (Sigma-Aldrich #11429868001), protease/phosphatase inhibitor tablet (Thermo Fisher #A32959)]. Lysates were collected and 100 μL/well added into the human phospho-KDR DuoSet IC ELISA (R&D Systems #DYC1766-2). Assay was performed according to manufacturer's instructions and sample phospho-KDR concentrations were extrapolated using human phospho-KDR control (R&D Systems #841421) as a standard. Positive control wells (100% activity) contained VEGF165-stimulated, DMSO-treated cell lysates. Negative control wells (0% activity) contained non-stimulated cell lysates. IC50 values were calculated by nonlinear regression analysis using a 4-parameter logistic curve fit in ActivityBase XE (IDBS).

Chain of Human Mer (residues R557-E882 with H628Q and R794A) (Q12866 557-882, stated change not applied): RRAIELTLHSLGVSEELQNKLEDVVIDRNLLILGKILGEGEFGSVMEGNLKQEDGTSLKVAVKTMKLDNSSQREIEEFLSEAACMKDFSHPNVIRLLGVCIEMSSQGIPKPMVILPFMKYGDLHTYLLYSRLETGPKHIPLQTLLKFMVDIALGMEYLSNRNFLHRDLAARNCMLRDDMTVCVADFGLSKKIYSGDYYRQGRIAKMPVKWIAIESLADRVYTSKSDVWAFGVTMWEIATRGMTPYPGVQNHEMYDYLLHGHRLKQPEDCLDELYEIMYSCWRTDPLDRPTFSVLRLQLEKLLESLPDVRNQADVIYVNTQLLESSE

SMILES	IC50 [1]	IC50 [2]	IC50 [3]	IC50 (AXL)	IC50 (Met)	IC50 (KDR)
COc1cc2nccc(Oc3ccc(NC(=O)C4(C(=O)Nc5ccc(F)cc5)CC4)cc3)c2cc1C(=O)NC[C@@H]1CCCN1 [Compound 22, 1-N′-(4-fluorophenyl)-1-N-[4-[7-methoxy-6-[[(2S)-pyrrolidin-2-yl]methylcarbamoyl]quinolin-4-yl]oxyphenyl]cyclopropane-1,1-dicarboxamide]	≤ 10 nM		≤ 10 nM	≤ 10 nM	10 to 100 nM	10 to 100 nM
NC(=O)c1cc2c(Oc3ccc(NC(=O)C4(C(=O)Nc5ccc(F)cc5)CC4)cc3)ccnc2cc1Cl [Compound 68, 1-N-[4-(6-carbamoyl-7-chloroquinolin-4-yl)oxyphenyl]-1-N′-(4-fluorophenyl)cyclopropane-1,1-dicarboxamide]	10 to 100 nM	100 to 1000 nM	10 to 100 nM			
NC(=O)c1cc2c(Oc3ccc(NC(=O)C4(C(=O)Nc5ccc(F)cc5)CC4)cc3)ccnc2cc1Br [Compound 69, 1-N-[4-(7-bromo-6-carbamoylquinolin-4-yl)oxyphenyl]-1-N′-(4-fluorophenyl)cyclopropane-1,1-dicarboxamide]	10 to 100 nM	100 to 1000 nM	10 to 100 nM			
Cc1cc2c(Oc3ccc(NC(=O)C4(C(=O)Nc5ccc(F)cc5)CC4)cc3)ccnc2cc1C(=O)O [Compound 141, 4-[4-[[1-[(4-fluorophenyl)carbamoyl]cyclopropanecarbonyl]amino]phenoxy]-6-methylquinoline-7-carboxylic acid]	> 1000 nM	> 1000 nM	> 1000 nM			
O=C(O)c1ccc2c(Oc3ccc(NC(=O)C4(C(=O)Nc5ccc(F)cc5)CC4)cc3)ccnc2c1 [Compound 163, 4-[4-[[1-[(4-fluorophenyl)carbamoyl]cyclopropanecarbonyl]amino]phenoxy]quinoline-7-carboxylic acid]	100 to 1000 nM	100 to 1000 nM	10 to 100 nM			

Further lines, results first:

IC50 [1]	IC50 [2]	IC50 [3]	IC50 (AXL)	IC50 (Met)	IC50 (KDR)	SMILES
≤ 10 nM	10 to 100 nM	≤ 10 nM				COc1cc2nccc(Oc3ccc(NC(=O)C4(C(=O)Nc5ccc(F)cc5)CC4)cc3)c2cc1C(=O)NCCN(C)C [Compound 10, 1-N-[4-[6-[2-(dimethylamino)ethylcarbamoyl]-7-methoxyquinolin-4-yl]oxyphenyl]-1-N′-(4-fluorophenyl)cyclopropane-1,1-dicarboxamide]
≤ 10 nM		≤ 10 nM	≤ 10 nM	10 to 100 nM	≤ 10 nM	COc1cc2nccc(Oc3ccc(NC(=O)C4(C(=O)Nc5ccc(F)cc5)CC4)cc3)c2cc1C(=O)NCCN1CCCCC1 [Compound 11, 1-N′-(4-fluorophenyl)-N-[4-[7-methoxy-6-(2-piperidin-1-ylethylcarbamoyl)quinolin-4-yl]oxyphenyl]cyclopropane-1,1-dicarboxamide]
≤ 10 nM		≤ 10 nM	≤ 10 nM	10 to 100 nM	≤ 10 nM	COc1cc2nccc(Oc3ccc(NC(=O)C4(C(=O)Nc5ccc(F)cc5)CC4)cc3)c2cc1C(=O)NCCN1CCOCC1 [Compound 12, 1-N′-(4-fluorophenyl)-1-N-[4-[7-methoxy-6-(2-morpholin-4-ylethylcarbamoyl)quinolin-4-yl]oxyphenyl]cyclopropane-1,1-dicarboxamide]
≤ 10 nM		≤ 10 nM	≤ 10 nM	10 to 100 nM	10 to 100 nM	COc1cc2nccc(Oc3ccc(NC(=O)C4(C(=O)Nc5ccc(F)cc5)CC4)cc3)c2cc1C(=O)NC[C@H]1CCCN1 [Compound 21, 1-N′-(4-fluorophenyl)-1-N-[4-[7-methoxy-6-[[(2R)-pyrrolidin-2-yl]methylcarbamoyl]quinolin-4-yl]oxyphenyl]cyclopropane-1,1-dicarboxamide]
